Experiments:
[1] = target: Epidermal growth factor receptor (Homo sapiens, UniProt P00533, C797S/EX18DEL/T790M); test: Inhibition of EGFR del18/T790M/C797S triple mutant (unknown origin) using TK as substrate incubated for 120 mins in the presence of ATP by HTRF assay
[2] = target: Epidermal growth factor receptor (Homo sapiens, UniProt P00533, C797S/L858R/T790M); test: Inhibition of EGFR L858R/T790M/C797S triple mutant (unknown origin) using TK as substrate incubated for 120 mins in the presence of ATP by HTRF assay
BaF3 = test: Antiproliferative activity against mouse BaF3 cells harboring del18/T790M/C797S triple mutant assessed as cell growth inhibition incubated for 72 hrs by cell titre glo luminescence assay; assay type: functional, cell-based; settings: BaF3, 72 h
[3] = Cmax in mouse at 5 mg/kg measured upto 24 hrs by LC-MS/MS analysis; assay type: ADME, organism-based; parameters: time < 24 hrs, dose 5 mg/kg; settings: in vivo
[4] = AUC(0 to t) in mouse at 5 mg/kg measured upto 24 hrs by LC-MS/MS analysis; assay type: ADME, organism-based; parameters: time < 24 hrs, dose 5 mg/kg; settings: in vivo
[5] = AUC(0 to infinity) in mouse at 5 mg/kg measured upto 24 hrs by LC-MS/MS analysis; assay type: ADME, organism-based; parameters: dose 5 mg/kg, time < 24 hrs; settings: in vivo
[6] = Half-life in mouse at 5 mg/kg measured upto 24 hrs by LC-MS/MS analysis; assay type: ADME, organism-based; settings: in vivo
[7] = MRT in mouse at 5 mg/kg measured upto 24 hrs by LC-MS/MS analysis; assay type: ADME, organism-based; settings: in vivo
[8] = target: Epidermal growth factor receptor (Homo sapiens, UniProt P00533); test: Inhibition of wild type EGFR (unknown origin) using TK as substrate incubated for 120 mins in the presence of ATP by HTRF assay
A-431 = test: Antiproliferative activity against human A-431 cells assessed as cell growth inhibition incubated for 72 hrs by cell titre glo luminescence assay; assay type: functional, cell-based; settings: A-431, 72 h
[9] = test system: Epidermal growth factor receptor (Homo sapiens), P00533 [UNDEFINED MUTATION]; test: Potency index, ratio of brigatinib IC50 to test compound IC50 for inhibition of EGFR del18/T790M/C797S triple mutant (unknown origin) using TK as substrate incubated for 120 mins in the presence of ATP by HTRF assay
[10] = test system: Epidermal growth factor receptor (Homo sapiens), P00533 [L858R,T790M,C797S]; test: Potency index, ratio of brigatinib IC50 to test compound IC50 for inhibition of EGFR L858R/T790M/C797S triple mutant (unknown origin) using TK as substrate incubated for 120 mins in the presence of ATP by HTRF assay

SMILES	IC50 [1] [nM]	IC50 [2] [nM]	IC50 (BaF3) [nM]	Cmax [3] [ng/mL]	AUC(0-t) at 24 h [4] [ng·h/mL]	AUC(0-inf) [5] [ng·h/mL]	half-life [6] [h]	MRT [7] [h]	IC50 [8] [nM]	IC50 (A-431) [nM]	Ratio IC50 [9]	Ratio IC50 [10]
CCc1cc(Nc2ncc(Br)c(Nc3ccc4c(c3P(C)(C)=O)OCO4)n2)c(OC)cc1N1CCC(N2CC(N(C)C)C2)CC1	0.4	0.15	14	1470	12300	12500	4.2	6				
CCN(C)C1CN(C2CCN(c3cc(OC)c(Nc4ncc(Br)c(Nc5ccc6c(c5P(C)(C)=O)OCCO6)n4)cc3C)CC2)C1		0.28	35						> 500			
CCc1cc(Nc2ncc(Br)c(Nc3ccn4ncnc4c3P(C)(C)=O)n2)c(OC)cc1N1CCC(N2CCOCC2)CC1	0.18	0.93	40						> 500	1300		
COc1cc(N2CCC(N3CCCN(C)CC3)CC2)c(C)cc1Nc1ncc(Br)c(Nc2ccc3c(c2P(C)(C)=O)OCCO3)n1	0.05	0.1	24									
CCc1cc(Nc2ncc(Br)c(Nc3ccc4c(c3P(C)(C)=O)OCCO4)n2)c(OC)cc1N1CCC(N2CC(CC#N)C2)CC1	0.49	0.41	7						416			
COc1cc(N2CCC(N3CC[C@H](N(C)C)C3)CC2)c(C)cc1Nc1ncc(Br)c(Nc2ccc3c(c2P(C)(C)=O)OCCO3)n1	0.12	0.15	28									
CCc1cc(Nc2ncc(Br)c(Nc3ccc4c(c3P(C)(C)=O)OCCO4)n2)c(OC)cc1N1CCC(N2CC(N(C)C)C2)CC1	0.08	0.08	8	2110	21000	21400	4	6.3				
CCOC1CN(C2CCN(c3cc(OC)c(Nc4ncc(Br)c(Nc5ccc6ncnn6c5P(C)(C)=O)n4)cc3CC)CC2)C1	0.9	0.67	44						> 500	1010		
CCc1cc(Nc2ncc(Br)c(Nc3ccc4nccnc4c3P(C)(C)=O)n2)c(OC)cc1N1CCC(N2CC(N(C)C)C2)CC1	0.11	0.08	16								7	40
COc1cc(N2CCC(N3CC(N(C)C)C3)CC2)c(C)cc1Nc1ncc(Br)c(Nc2ccc3nccnc3c2P(C)(C)=O)n1	0.06	0.09	13									
CCOC1CN(C2CCN(c3cc(OC)c(Nc4ncc(Br)c(Nc5ccc6nccnc6c5P(C)(C)=O)n4)cc3C)CC2)C1	0.65	0.43	29						652	422		
CCO[C@@H]1CCN(C2CCN(c3cc(OC)c(Nc4ncc(Br)c(Nc5ccc6c(c5P(C)(C)=O)OCCO6)n4)cc3C)CC2)C1	0.28	0.41	30	1260	11100	11200	3.5	5.5				
CCc1cc(Nc2ncc(Br)c(Nc3ccc4ncnn4c3P(C)(C)=O)n2)c(OC)cc1N1CCC(N2CC(COC)C2)CC1	0.1	0.84	37						> 500	702		
CCc1cc(Nc2ncc(Br)c(Nc3ccc4c(c3P(C)(C)=O)OCCO4)n2)c(OC)cc1N1CCC(N2CC(COC)C2)CC1	0.15	0.12	12									
CCc1cc(Nc2ncc(Br)c(Nc3ccc4nccnc4c3P(C)(C)=O)n2)c(OC)cc1N1CCC(N2CCCN(C)CC2)CC1	0.83	0.27	9						3000	490		
COc1cc(N2CCC(N3CC(N(C)C)C3)CC2)c(C)cc1Nc1ncc(Br)c(Nc2ccc3c(c2P(C)(C)=O)OCCO3)n1	0.3	0.22	13	1680	16400	16500	5.6	6				
CCOC1CN(C2CCN(c3cc(OC)c(Nc4ncc(Br)c(Nc5ccc6c(c5P(C)(C)=O)OCCO6)n4)cc3C)CC2)C1			32	2030	25200	25300	3.2	6.1				
COc1cc(N2CCC(N3CCCOCC3)CC2)c(C)cc1Nc1ncc(Br)c(Nc2ccc3c(c2P(C)(C)=O)OCCO3)n1	0.13	0.19	20									
CCc1cc(Nc2ncc(Br)c(Nc3ccn4ncnc4c3P(C)(C)=O)n2)c(OC)cc1N1CCC(N2CCN(CC)CC2)CC1	0.1	0.67	34						> 500	731		

Reference: ChEMBL document CHEMBL5113487, “Novel anilinopyrimidine derivatives as potential EGFRT790M/C797S Inhibitors: Design, Synthesis, biological activity study” (Bioorg Med Chem, 2022)
